The values that follow come from patent US20100129910A1, “Cell matrix related compositions and their use for generating embryoid bodies” (priority 2008, published 2010).

For test [1], the system named is hESC lines H1 and H9. As to the kind of experiment: hESC re-aggregation and EB formation, MEF-free modified spin EB method (Example 2). The test is classed as cell-based, human. The method, then:
To generate MEF-free EBs, a modification of the “spin EB” method was used (8, 9). Colonies of H1 and H9 hESC (WiCell Inc) (passage 36-50) were cut into uniformed sized pieces using StemProEZPassage tool, transferred onto 6-well plates coated for 1 hour with Matrigel (growth factor reduced, no phenol red; BD Bioscience), and cultured in MEF-conditioned hESC media supplemented with 4 ng/ml FGF2. Pre-culture on Matrigel increases aggregation capacity of hESC (data not shown). After 24 hours, colonies were digested with Tryple Select into a single cell suspension, incubated with SSEA4 antibody, and SSEA4 positive cells sorted with FACS as described above. Before the sorting step 2-3% of the cells in suspension were represented by MEFs and 97-98% by hESC. After sorting, purity of hESC in the preparation was >99.9% as was measured with SSEA4 staining by FACS. These purified hESC were centrifuged at 1400 RPM and the resulting pellet was resuspended in previously described differentiation media, transferred into low attachment round-bottom 96 well culture plates (Nunc, Rochester, N.Y.) and centrifuged at 1400 RPM for 7 min with or without inducers of aggregation. To test the effects on cell aggregation, a mixture of ECMs in the form of Matrigel (5, 25, 100, 200, μg/ml) a solubilized basement membrane preparation extracted from the Engelbreth-Holm-Swarm (EHS) mouse sarcoma; murine laminin-111 and nidogen-1 complex (5, 25, 100, 200 μg/ml) from EHS sarcoma; or purified human collagen IV (1, 5, 25, 50 μg/ml) (all from BD Bioscience); human laminin-511 (1,5, 25, 50 μg/ml) (Sigma-Aldrich) and human nidogen-1 (1,5, 25, 50 μg/ml) (R&D systems) were added to the cell suspension prior to centrifugation. For directed differentiated of the EBs, differentiation media was supplemented with human vascular endothelial growth factor (VEGF), FGF2, bone morphogenic protein 4 (BMP4), or Wnt3a (all at 10 ng/ml; R&D systems) or FCS (Omega Scientific Inc. Tarzana, Calif.), prior to the final centrifugation step dependent upon experimental design.
Lower concentrations were not sufficient to aggregate all cells in the well. Higher concentrations of Matrigel increased viscosity and blocked efficient pellet formation during centrifugation.
To further dissect the mechanisms of hESC aggregation, the key ECM proteins were tested individually at a range of concentrations with regards to their capacity to assemble dispersed hESC into EBs. […] Thus, the presence of both laminin (either 111 or 511) and nidogen-1 was required for hESC aggregation.

Test [2] deals with hES cells. Description: ES cell aggregation under different conditions (EB formation by centrifugation, Example 1). The test is classed as cell-based, human. Particulars: inducer at 0.1 mg/ml (each protein). The text has this: Our investigations have shown that two elements when added to the hESC suspensions are sufficient to allow re-aggregation in the absence of MEF or other feeder cells. These two elements are the extracellular matrix proteins laminin and nidogen (Table 1 and FIG. 1A).
By adding human laminin and nidogen complex into suspensions of pure hES cells, cells or products of non-human origin can be completely avoided in the re-aggregation of hESC and the subsequent generation of EB. Laminin binds to the surface of hES cells through the specific receptor integrin α6 β1. […] Nidogen cross-links large molecules of laminin attached to the hES cell receptors into complex three-dimensional structures. When a laminin-nidogen mix is added to a hES cell suspension, highly viable EBs can be generated from as little as 100 hES cells (FIG. 1B).
Using our method, undifferentiated hES cells are prepared as a single cell suspension, plated (at the desired number of cells) into low attachment round bottom 96 well plates and then re-aggregated to form EBs using centrifugation in the presence of the laminin-nidogen complex. hEBs formed in this way have excellent viability, are of uniform size and contain all three germ layers (ectoderm, mesoderm and endoderm)—that can in turn be induced to generate more differentiated tissue. The simplicity of this method of hEB generation reduces the variability inherent in culture systems that require cellular components (such as MEFs) or other complex media. The simplicity of the system also facilitates the testing of variables that affect differentiation of hEB into different tissue types and improves the quantitation of any effects seen. This system may also be used for generation of chimeric EBs when different cell types (e.g., hES cells transduced with fluorescent tag can be mixed with non-transduced hES cells and re-aggregated into one EB with subsequent tracking of progenies arising from the labeled cells.

The test system of test [3] is hESC. The conditions noted are these: cited from earlier work.
Test [4] deals with LN-EBs from hESC. As to the kind of experiment: Germ layer differentiation of LN-EBs (immunohistochemistry for nestin, CD34, alpha-fetoprotein). The test is classed as cell-based, human. The method, then: FIG. 4: Generation of ectodermal, mesodermal and endodermal derivatives in the “LN-EB” system. “LN-EBs” were generated with the laminin-nidogen complex and in the presence of media designed for specific germ layer differentiation. A. For induction of ectodermal derivatives, serum-free media was supplemented with Wnt3a (10 ng/ml); B. Addition of BMP4, FGF2, VEGF (all 10 ng/ml) to serum-free medium induced formation of endodermal and mesodermal derivatives. C. Addition of 10% FCS, with no exogenous growth factors, induced synchronous generation of the all three germ layers. D. Standard EBs cultured in medium supplemented with 10% FCS. E. Control EBs cultured in serum-free media with no exogenous growth factors. F. No primary antibody control of immunostaining. Immunohistochemical detection of ectoderm, mesoderm and endoderm formation was assessed using antibodies for nestin (left column), CD34 (middle column) and alpha-fetoprotein (right column) respectively. Antigen expression is shown in brown color. Nuclei are stained with hematoxylin (blue). Magnification: 200×. […]
To generate MEF-free EBs, a modification of the “spin EB” method was used (8, 9). […] After sorting, purity of hESC in the preparation was >99.9% as was measured with SSEA4 staining by FACS. […]

Where [5] appears, read: added individually as single agents at a range of concentrations.

In the case of “human laminin-511: human laminin-α5β1γ1 heterotrimer (Sigma-Aldrich)”, in test [1] (setting [5]), the hESC aggregation result was “minimal aggregation”.

Regarding “human laminin-511 complexed with human nidogen-1: ultrapure human laminin-511 complexed with human nidogen-1, ratio laminin to nidogen 9:1”, in test [1] (laminin-511 9-22.5 μg/ml with nidogen-1 1-2.5 μg/ml, ratio laminin to nidogen 9:1), the hESC aggregation result is given as “robust aggregation”. “Collagen IV: extracellular matrix protein collagen IV”: in test [2], the Aggregation result is “−”. Regarding “human collagen-IV: purified human collagen IV (BD Bioscience) [reference compound]”, the hESC aggregation result in test [1] (setting [5]) was “No aggregation”. Consider `C[C@@H](N)[C@H]1CC[C@H](C(=O)Nc2ccncc2)CC1` [Y-27632], for which the “aggregation and EB formation of dissociated hESC” value in test [3] (10 μM) is “aggregate and form EBs”. In addition, the “survival of hESC after dissociation to single cells” value in test [3] was “promote the survival”. “murine laminin-111-nidogen-1 complex: murine laminin-111 and nidogen-1 complex from EHS sarcoma”: in test [1] (100-200 μg/ml, MEF-free single cell suspension, after centrifugation), the hESC aggregation result is listed as “robust aggregation”. Take Laminin: the Aggregation result in test [2] is listed as “+ (+ means very little aggregation)”.

For Fibronectin, in test [2], the Aggregation result is “−”.

B1: nidogen-1: human nidogen-1 linker protein (R&D systems) (protein, UniProt P14543 29-1247, looked up)
Nidogen-1: LSRQELFPFGPGQGDLELEDGDDFVSPALELSGALRFYDRSDIDAVYVTTNGIIATSEPPAKESHPGLFPPTFGAVAPFLADLDTTDGLGKVYYREDLSPSITQRAAECVHRGFPEISFQPSSAVVVTWESVAPYQGPSRDPDQKGKRNTFQAVLASSDSSSYAIFLYPEDGLQFHTTFSKKENNQVPAVVAFSQGSVGFLWKSNGAYNIFANDRESVENLAKSSNSGQQGVWVFEIGSPATTNGVVPADVILGTEDGAEYDDEDEDYDLATTRLGLEDVGTTPFSYKALRRGGADTYSVPSVLSPRRAATERPLGPPTERTRSFQLAVETFHQQHPQVIDVDEVEETGVVFSYNTDSRQTCANNRHQCSVHAECRDYATGFCCSCVAGYTGNGRQCVAEGSPQRVNGKVKGRIFVGSSQVPIVFENTDLHSYVVMNHGRSYTAISTIPETVGYSLLPLAPVGGIIGWMFAVEQDGFKNGFSITGGEFTRQAEVTFVGHPGNLVIKQRFSGIDEHGHLTIDTELEGRVPQIPFGSSVHIEPYTELYHYSTSVITSSSTREYTVTEPERDGASPSRIYTYQWRQTITFQECVHDDSRPALPSTQQLSVDSVFVLYNQEEKILRYALSNSIGPVREGSPDALQNPCYIGTHGCDTNAACRPGPRTQFTCECSIGFRGDGRTCYDIDECSEQPSVCGSHTICNNHPGTFRCECVEGYQFSDEGTCVAVVDQRPINYCETGLHNCDIPQRAQCIYTGGSSYTCSCLPGFSGDGQACQDVDECQPSRCHPDAFCYNTPGSFTCQCKPGYQGDGFRCVPGEVEKTRCQHEREHILGAAGATDPQRPIPPGLFVPECDAHGHYAPTQCHGSTGYCWCVDRDGREVEGTRTRPGMTPPCLSTVAPPIHQGPAVPTAVIPLPPGTHLLFAQTGKIERLPLEGNTMRKTEAKAFLHVPAKVIIGLAFDCVDKMVYWTDITEPSIGRASLHGGEPTTIIRQDLGSPEGIAVDHLGRNIFWTDSNLDRIEVAKLDGTQRRVLFETDLVNPRGIVTDSVRGNLYWTDWNRDNPKIETSYMDGTNRRILVQDDLGLPNGLTFDAFSSQLCWVDAGTNRAECLNPSQPSRRKALEGLQYPFAVTSYGKNLYFTDWKMNSVVALDLAISKETDAFQPHKQTRLYGITTALSQCPQGHNYCSVNNGGCTHLCLATPGSRTCRCPDNTLGVDCIEQK
On to B1, for which the hESC aggregation entry in test [1] (setting [5]) is “minimal aggregation”.

B2: Wnt3a: morphogen Wnt3a, 10 ng/ml (R&D systems) (protein, UniProt P56704 19-352, looked up)
Protein Wnt-3a: SYPIWWSLAVGPQYSSLGSQPILCASIPGLVPKQLRFCRNYVEIMPSVAEGIKIGIQECQHQFRGRRWNCTTVHDSLAIFGPVLDKATRESAFVHAIASAGVAFAVTRSCAEGTAAICGCSSRHQGSPGKGWKWGGCSEDIEFGGMVSREFADARENRPDARSAMNRHNNEAGRQAIASHMHLKCKCHGLSGSCEVKTCWWSQPDFRAIGDFLKDKYDSASEMVVEKHRESRGWVETLRPRYTYFKVPTERDLVYYEASPNFCEPNPETGSFGTRDRTCNVSSHGIDGCDLLCCGRGHNARAERRREKCRCVFHWCCYVSCQECTRVYDVHTCK
Turning to B2, the “germ layer derivatives suppressed in LN-EBs” value in test [4] (serum-free medium, growth factors 10 ng/ml) is “formation of meso-endodermal derivatives labeled with CD34 and alpha-fetoprotein respectively was almost completely abolished”. Besides, in test [4] (supplement in medium (growth factors 10 ng/ml serum-free, or 10% FCS), day 15), the “germ layer derivatives formed in LN-EBs” value is “neuro-ectodermal epithelial cells that expressed nestin and formed solid neural tube-like structures were efficiently induced”.
